Source: ChEMBL document CHEMBL4627287, “Synthesis and biological evaluation of novel pyrazolo[3,4-b]pyridines as cis-restricted combretastatin A-4 analogues” (Bioorg Med Chem Lett, 2020)

Tests used:
MCF7 = experiment: Antiproliferative activity against human MCF7 cells assessed as cell growth inhibition measured after 48 hrs by MTT assay; assay type: functional, cell-based; details: MCF7, 48 h
MDA-MB-231 = experiment: Antiproliferative activity against human MDA-MB-231 cells assessed as cell growth inhibition measured after 48 hrs by MTT assay; assay type: functional, cell-based; details: MDA-MB-231, 48 h
HeLa [1] = experiment: Antiproliferative activity against human HeLa cells assessed as cell growth inhibition measured after 48 hrs by MTT assay; assay type: functional, cell-based
KYSE-150 cell line = experiment: Antiproliferative activity against human KYSE-150 cells assessed as cell growth inhibition measured after 48 hrs by MTT assay; assay type: functional, cell-based; details: KYSE-150, 48 h
Tubulin (Homo sapiens) = Tubulin (Homo sapiens) (UniProt P68371+Q9H4B7+P0DPH7+P68366+Q13509+Q71U36+P04350+Q3ZCM7+P07437+P68363+Q9BQE3+Q6PEY2+Q13885+Q9BVA1+Q9BUF5); experiment: Inhibition of tubulin polymerization (unknown origin) at 10 uM relative to control; assay type: protein-complex assay
HeLa [2] = experiment: Cell cycle arrest in human HeLa cells assessed as accumulation at G0/G1 phase at 9 uM measured after 24 hrs by propidium iodide staining based flow cytometry analysis (reference value: 67.86 %); assay type: functional
HeLa [3] = experiment: Cell cycle arrest in human HeLa cells assessed as accumulation at G2/M phase at 9 uM measured after 24 hrs by propidium iodide staining based flow cytometry analysis (reference value: 13.92 %); assay type: functional
HeLa [4] = experiment: Cell cycle arrest in human HeLa cells assessed as accumulation at S phase at 9 uM measured after 24 hrs by propidium iodide staining based flow cytometry analysis (reference value: 18.92 %); assay type: functional
HeLa [5] = experiment: Cell cycle arrest in human HeLa cells assessed as accumulation at G0/G1 phase at 18 uM measured after 24 hrs by propidium iodide staining based flow cytometry analysis (reference value: 67.86 %); assay type: functional
HeLa [6] = experiment: Cell cycle arrest in human HeLa cells assessed as accumulation at G2/M phase at 18 uM measured after 24 hrs by propidium iodide staining based flow cytometry analysis (reference value: 13.92 %); assay type: functional
HeLa [7] = experiment: Cell cycle arrest in human HeLa cells assessed as accumulation at S phase at 18 uM measured after 24 hrs by propidium iodide staining based flow cytometry analysis (reference value: 18.92 %); assay type: functional
HeLa [8] = experiment: Cell cycle arrest in human HeLa cells assessed as accumulation at G0/G1 phase at 36 uM measured after 24 hrs by propidium iodide staining based flow cytometry analysis (reference value: 67.86 %); assay type: functional
HeLa [9] = experiment: Cell cycle arrest in human HeLa cells assessed as accumulation at G2/M phase at 36 uM measured after 24 hrs by propidium iodide staining based flow cytometry analysis (reference value: 13.92 %); assay type: functional
HeLa [10] = experiment: Cell cycle arrest in human HeLa cells assessed as accumulation at S phase at 36 uM measured after 24 hrs by propidium iodide staining based flow cytometry analysis (reference value: 18.92 %); assay type: functional
HeLa [11] = experiment: Cell cycle arrest in human HeLa cells assessed as accumulation at G2/M phase measured after 24 hrs by propidium iodide staining based flow cytometry analysis; assay type: functional

Structure (SMILES) | IC50 (MCF7) [µM] | IC50 (MDA-MB-231) [µM] | IC50 (HeLa [1]) [µM] | IC50 (KYSE-150 cell line) [µM] | further results
COc1cc(-n2nc(-c3ccc(Cl)cc3)c3cccnc32)cc(OC)c1OC | 97.6 | 84.3 | > 100 | > 100 | –
COc1cccc(-c2nn(-c3cc(OC)c(OC)c(OC)c3)c3ncccc23)n1 | > 100 | > 100 | > 100 | > 100 | –
COc1cccc(-c2nn(-c3cc(OC)c(OC)c(OC)c3)c3ncccc23)c1 | 86.9 | 86.7 | 85 | > 100 | –
COc1ccc(-c2nn(-c3cc(OC)c(OC)c(OC)c3)c3ncccc23)cc1OC | 96.8 | 28.7 | 22.7 | > 100 | inhibition (Tubulin (Homo sapiens)): 14%
COc1cc(-n2nc(-c3ccc([N+](=O)[O-])cc3)c3cccnc32)cc(OC)c1OC | > 100 | > 100 | 84.5 | > 100 | –
COc1ccc(-n2nc(-c3cc(OC)c(OC)c(OC)c3)c3cccnc32)cc1OC | > 100 | > 100 | > 100 | > 100 | –
COc1ccccc1-c1nn(-c2cc(OC)c(OC)c(OC)c2)c2ncccc12 | > 100 | > 100 | > 100 | > 100 | –
COc1cc(-c2nn(Cc3ccc(F)cc3)c3ncccc23)cc(OC)c1OC | > 100 | 61.5 | 92.7 | > 100 | –
COc1cc(-n2nc(-c3ccccc3OC(F)(F)F)c3cccnc32)cc(OC)c1OC | > 100 | 60.5 | 78.9 | > 100 | –
COc1cc(F)ccc1-c1nn(-c2cc(OC)c(OC)c(OC)c2)c2ncccc12 | 87.6 | 47 | 58.3 | 87.4 | inhibition (Tubulin (Homo sapiens)): 20%
COc1cc(-n2nc(-c3ccc(C(=O)NN)cc3)c3cccnc32)cc(OC)c1OC | > 100 | 51 | 21.9 | > 100 | –
COc1ccc(-c2nn(-c3cc(OC)c(OC)c(OC)c3)c3ncccc23)cc1[N+](=O)[O-] | 28.4 | 37.3 | 23.5 | > 100 | inhibition (Tubulin (Homo sapiens)): 16%
COc1cc(-n2nc(-c3ccc(C)cc3)c3cccnc32)cc(OC)c1OC | > 100 | > 100 | > 100 | > 100 | –
COC(=O)c1ccc(-c2nn(-c3cc(OC)c(OC)c(OC)c3)c3ncccc23)cc1 | > 100 | > 100 | > 100 | > 100 | –
COC(=O)c1ccc(-n2nc(-c3cc(OC)c(OC)c(OC)c3)c3cccnc32)cc1 | > 100 | > 100 | > 100 | > 100 | –
COc1cc(-c2nn(Cc3ccc(C)cc3)c3ncccc23)cc(OC)c1OC | > 100 | > 100 | > 100 | > 100 | –
COc1cc(-n2nc(-c3ccc(F)cc3)c3cccnc32)cc(OC)c1OC | 76.7 | 56.4 | 51.4 | 41.1 | inhibition (Tubulin (Homo sapiens)): 18%
COc1ccc(/C=C\c2cc(OC)c(OC)c(OC)c2)cc1O [COMBRETASTATIN A4] | – | 0.017 | 0.003 | 0.6 | –
COc1cc(-n2nc(-c3ccc(C#N)cc3)c3cccnc32)cc(OC)c1OC | 45.9 | 82.5 | 72.5 | 85.9 | –
COc1ccc(F)cc1-c1nn(-c2cc(OC)c(OC)c(OC)c2)c2ncccc12 | > 100 | 69.9 | 91.8 | 74.3 | –
COc1cc(-c2nn(-c3ccc(Cl)cc3)c3ncccc23)cc(OC)c1OC | > 100 | > 100 | > 100 | > 100 | –
COc1cc(-n2nc(-c3ccc(Cl)c(Cl)c3)c3cccnc32)cc(OC)c1OC | > 100 | > 100 | > 100 | > 100 | –
COc1ccc(-c2nn(-c3cc(OC)c(OC)c(OC)c3)c3ncccc23)cc1 | > 100 | > 100 | > 100 | > 100 | –
COc1cc(-c2nn(-c3ccc(C(=O)NN)cc3)c3ncccc23)cc(OC)c1OC | 65.2 | > 100 | 29.7 | > 100 | –
COc1cc(-n2nc(-c3ccc4c(c3)OCO4)c3cccnc32)cc(OC)c1OC | 80.1 | 79.7 | 38.9 | 58.9 | –
COc1ccc(-c2nn(-c3cc(OC)c(OC)c(OC)c3)c3ncccc23)cc1O | 27.2 | 27 | 18.1 | 62.8 | Activity (HeLa [2]): 51.89%; Activity (HeLa [3]): 26.93%; Activity (HeLa [4]): 21.18%; Activity (HeLa [5]): 50.48%; Activity (HeLa [6]): 34.87%; Activity (HeLa [7]): 14.85%; Activity (HeLa [8]): 30.61%; Activity (HeLa [9]): 48.13%; Activity (HeLa [10]): 21.25%; Activity (HeLa [11]): Dose-dependent effect; inhibition (Tubulin (Homo sapiens)): 31%
COc1ccc(-c2nn(-c3cc(OC)c(OC)c(OC)c3)c3ncccc23)cc1N | > 100 | > 100 | 33.4 | 58.1 | –
